Results: US20230123488A1, “STABLE TOPICAL TETRACYCLINE COMPOSITIONS” (VYNE THERAPEUTICS INC., priority 2017, published 2023)
Structures can show the parent of a compound that is named as a salt. Where two headings read alike, the source gives them in different places.

What was measured:
[1] = Doxycycline solubility in various solvents; assay type: physicochemical; settings: supernatant
Experimental: Saturated solutions of doxycycline hyclate are prepared by stirring doxycycline in approximately 20 g of solvents for over 48 hours at room temperature. By the end of stirring, all samples have solids in equilibrium with liquids. The samples are filtered and subjected to quantification using UPLC.
Each composition was subjected to centrifugation and the supernatant with dissolved active agent analyzed. The weight /weight percentage of active agent found dissolved in each solvent is shown below: […]

[2] = Cyclomethicone 5 NF, Diisopropyl adipate, Hydrogenated Castor Oil, MCT Oil, cited from earlier work
[3] = Compatibility test of active agent with excipients; assay type: physicochemical; settings: excipients: soybean oil, paraffin 57-64, polyvinyl alcohol and hydroxypropylcellulose (klucel)
Experimental: Compatibility tests were performed as described in US8,343,945 and US8,945,516, which are incorporated here by reference with respect to the excipients and their compatibility described herein. […] The mixture was assessed for active agent degradation and optionally for color change.

[4] = in Isopropyl myristate, room temperature, 72 hours
[5] = in Oleic acid, room temperature, 72 hours

Compound	Doxycycline content (solubility) ([1]; in 1,3 propane-di-ol, room temperature, 72 hours) [% w/w]	Doxycycline content (solubility) ([1]; in Dimethyl isosorbide, excess doxycycline hyclate stirred at room temperature for 72 hours) [% w/w]	Doxycycline content (solubility) ([1]; in Dimethyl sulfoxide, room temperature, 72 hours) [% w/w]	Doxycycline content (solubility) ([1]; in Ethanol, room temperature, 72 hours) [% w/w]	Doxycycline content (solubility) ([1]; in Glycerin, room temperature, 72 hours) [% w/w]	Doxycycline content (solubility) ([1]; in Hexylene glycol, room temperature, 72 hours) [% w/w]	Doxycycline content (solubility) ([1]; in Isopropanol, room temperature, 72 hours) [% w/w]	Doxycycline content (solubility) [1, 4]	Doxycycline content (solubility) [1, 5]	Doxycycline content (solubility) ([1]; in Oleyl alcohol, room temperature, 72 hours) [% w/w]	Doxycycline content (solubility) ([1]; in Propylene carbonate, room temperature, 72 hours) [% w/w]	Doxycycline content (solubility) ([1]; in Propylene glycol, room temperature, 72 hours) [% w/w]	Doxycycline content (solubility) ([1]; in Transcutol, room temperature, 72 hours) [% w/w]	Compatibility with excipients ([2]; excipients: Cetearyl octanoate, Ethanol 95%, Hexylene glycol, Isostearic acid, Mineral Oil, Myristyl alcohol, Oleyl alcohol, PEG 100 Stearate, PPG-15 Stearyl Ether, Sorbitan Monostearate (SPAN 60), Stearyl alcohol)	Compatibility with additional excipients [3]	Compatibility with excipients ([2]; excipients: Aerosil, Almond oil, Avocado oil, Beeswax, Behenyl alcohol, Calendula oil, Castor oil, Cetearyl octanoate, Cetostearyl alcohol, Cetyl alcohol, Cocoglycerides, Coconut oil, Gelled mineral oil, Grape seed oil, Hard Fat, Isododecane, isopropyl myristate, Isostearyl alcohol, Jojoba oil, Menthol, Myrist)
Doxycycline Hyclate [Dox hyclate]	21.56	4.12	25.34	3.15	18.28	5.47	1.67	Not detected	Not detected	0.29	0.78	34.17	16.30	compatible	–	–
C[C@H]1c2cccc(O)c2C(=O)C2=C(O)[C@]3(O)C(=O)C(C(N)=O)=C(O)[C@@H](N(C)C)[C@@H]3[C@@H](O)[C@@H]21 [doxycycline, Doxycycline]	–	–	–	–	–	–	–	Not detected	Not detected	–	–	–	–	–	–	–
CN(C)c1ccc(O)c2c1C[C@H]1C[C@H]3[C@H](N(C)C)C(O)=C(C(N)=O)C(=O)[C@@]3(O)C(O)=C1C2=O [minocycline HCL, Minocycline HCL]	–	–	–	–	–	–	–	–	–	–	–	–	–	–	compatible	compatible
